Here are results for 1 compound from patent publication US20160030476A1, “Compositions, Methods And Devices For Promoting Wound Healing And Reducing Infection” (IASIS MOLECULAR SCIENCES, priority 2013, published 2016).

Molecules are shown by their SMILES.

Holding throughout (test): Therapeutic index (IC50 fibroblasts / MIC90 in broth)
For experiment [1], the system named is multi-drug resistant Pseudomonas aeruginosa (Pseudo). Type of experiment: cell-based.
Another experiment deals with MRSA. Type of experiment: cell-based, Staphylococcus aureus.
Experiment [2] concerns multi-drug resistant Klebsiella pneumonia (Kleb). In kind it is cell-based.
Experiment [3] deals with multi-drug resistant Acinetobacter baumannii (AcBc). In kind it is cell-based.

Turning to `N[C@@H](CCC(=O)N[C@@H](CS)C(=O)NCC(=O)O)C(=O)O.[Ag]` [GSH-Ag, glutathione silver], the “Pseudo T.I.” value in experiment [1] amounted to 2.9. Moreover, the “MRSA T.I.” value in the experiment with MRSA is on record as 1.5. For the same compound, the “Kleb T.I.” value in experiment [2] is recorded as 1.4. In experiment [3], the “AcBc T.I.” value was 2.9.
